Data as given in patent US12048686B2, “Compositions and methods for activating NRF2-dependent gene expression” (The University of Chicago, priority 2018, dated 2024).

System: IMR32 cells
Assay: Targeted LC-MS measurement of cellular MGx levels in IMR32 cells
Format: cell-based
Conditions: relative to DMSO
Description: FIG. 8A-H. MGx and glyoxylase activity regulates NRF2 activation. CBR-470-1 causes elevated MGx levels in cells. (a) Schematic depicting chemical derivatization and trapping of cellular MGx for analysis by targeted metabolomics using two unique fragment ions. (b, c) Daughter ion fragments (b) and resulting MS/MS quantification of MGx levels (c) in IMR32 cells treated with CBR-470-1, relative to DMSO (n=4). (d) Quantitative LC-MS/MS measurement of cellular MGx levels in IMR32 cells treated for 2 hours with CBR-470-1 or co-treated for 2 hours with CBR-470-1 and NAC (2 mM) relative to DMSO (n=4).
Quantitative Metabolomic Profiling. […] Metabolite peak transitions and retention times are listed in Table 2 and were confirmed by running standards for measured glycolytic, PPP, CAC and co-factor metabolites. 2-phosphoglycerate and 3-phosphoglycerate isomers were quantified in aggregate (2PG/3PG). Relative metabolite abundance was quantified by integrated peak area for the given MRM-transition, and all metabolite levels were normalized to internal standard extracted ion intensity values for d3-serine. These parameters were used to quantify all metabolites, with the exception of 1,3-BPG and MGx, which required chemical derivitization to stable intermediates prior to LC-MS/MS quantification, as previously reported^20, 33. […]

CC(C)CN[C@H]1CS(=O)(=O)C[C@@H]1S(=O)(=O)c1ccc(Cl)cc1 [CBR-470-1]
cellular MGx levels: significant elevation of cellular MGx levels in the first few hours of treatment
